Measured values published in PubChem BioAssay (NCI).
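A five-concentration, 48-hour dose response in 96-well plates underlies each endpoint, interpolated linearly between surrounding concentrations. GI50 is the concentration that inhibits growth by half. Definition used: TGI = concentration required for complete inhibition of growth.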

Assays:
Experiment in all cases: NCI tumour cell line growth inhibition, 48 h
SK-MEL-5 melanoma = system: SK-MEL-5 melanoma
ACHN renal = system: ACHN renal
A498 renal = system: A498 renal
M14 melanoma = system: M14 melanoma
EKVX NSCLC = system: EKVX NSCLC
SK-MEL-28 melanoma = system: SK-MEL-28 melanoma
RXF 393 renal = system: RXF 393 renal
NCI-H460 lung = system: NCI-H460 lung
UACC-62 melanoma = system: UACC-62 melanoma
MDA-MB-435 = system: MDA-MB-435

Cc1cc(Cl)ccc1NC(=O)C1C(=O)N(c2ccc(Cl)cc2C)C(=O)/C1=N\N (stereo unspecified)
TGI (SK-MEL-5 melanoma): > 100 µM | TGI (ACHN renal): > 100 µM | TGI (A498 renal): 93.7 µM | TGI (M14 melanoma): > 100 µM | TGI (EKVX NSCLC): > 100 µM | TGI (SK-MEL-28 melanoma): > 100 µM | TGI (RXF 393 renal): > 100 µM | TGI (NCI-H460 lung): > 100 µM | TGI (UACC-62 melanoma): > 100 µM

Cc1nc2cc(O)c(O)cc2cc1Oc1ccc(NC(=O)Nc2ccc(Cl)c(Cl)c2)cc1
GI50 (SK-MEL-5 melanoma): 5.94 µM | TGI (SK-MEL-5 melanoma): 14.2 µM | GI50 (ACHN renal): 3.37 µM | TGI (ACHN renal): 17.9 µM | GI50 (A498 renal): > 32.5 µM | TGI (A498 renal): > 32.5 µM | GI50 (M14 melanoma): 5.97 µM | TGI (M14 melanoma): 13.8 µM | GI50 (SK-MEL-28 melanoma): 9 µM | TGI (SK-MEL-28 melanoma): 30.1 µM | GI50 (MDA-MB-435): 6.99 µM | TGI (MDA-MB-435): > 32.5 µM | GI50 (RXF 393 renal): 9.24 µM | TGI (RXF 393 renal): > 32.5 µM | GI50 (NCI-H460 lung): 6.95 µM | TGI (NCI-H460 lung): 15.8 µM | GI50 (UACC-62 melanoma): 5.67 µM | TGI (UACC-62 melanoma): 11.2 µM

Cc1ccccc1NC(=O)c1[nH]c(=S)nc(N)c1-c1ccccc1C
TGI (SK-MEL-5 melanoma): > 100 µM | TGI (ACHN renal): > 100 µM | TGI (A498 renal): > 100 µM | TGI (M14 melanoma): > 100 µM | TGI (EKVX NSCLC): > 100 µM | TGI (SK-MEL-28 melanoma): > 100 µM | TGI (RXF 393 renal): > 100 µM | TGI (NCI-H460 lung): > 100 µM | TGI (UACC-62 melanoma): > 100 µM

O=C1C(c2ccccc2)=C(c2ccccc2)C(c2ccccc2)/C1=C1\C(=O)C(c2ccccc2)=C(c2ccccc2)C1c1ccccc1 (stereo unspecified)
TGI (SK-MEL-5 melanoma): > 100 µM | TGI (ACHN renal): > 100 µM | TGI (A498 renal): > 100 µM | TGI (M14 melanoma): > 100 µM | TGI (EKVX NSCLC): > 100 µM | TGI (SK-MEL-28 melanoma): > 100 µM | TGI (RXF 393 renal): > 100 µM | TGI (NCI-H460 lung): > 100 µM | TGI (UACC-62 melanoma): > 100 µM

C[Si](C)(C)/C(Br)=C\CCN1C(=O)CCC1O (stereo unspecified)
TGI (ACHN renal): > 100 µM | TGI (A498 renal): > 100 µM | TGI (M14 melanoma): > 100 µM | TGI (EKVX NSCLC): > 100 µM | TGI (SK-MEL-28 melanoma): > 100 µM | TGI (RXF 393 renal): > 100 µM | TGI (NCI-H460 lung): > 100 µM | TGI (UACC-62 melanoma): > 100 µM

C/C=C/C1(NS(=O)(=O)c2ccc(C)cc2)CCC(C(C)(C)C)CC1 (stereo unspecified)
TGI (SK-MEL-5 melanoma): 31.8 µM | TGI (ACHN renal): > 100 µM | TGI (A498 renal): 49.3 µM | TGI (M14 melanoma): 35.1 µM | TGI (EKVX NSCLC): 64.5 µM | TGI (RXF 393 renal): 42.3 µM | TGI (NCI-H460 lung): 51.5 µM | TGI (UACC-62 melanoma): 37.4 µM

CC(C)(C)c1cc(C(O)(C(F)(F)F)C(F)(F)F)c2c(c1)C(C(F)(F)F)(C(F)(F)F)OC(c1ccccc1)(C(C)(C)C)N2 (stereo unspecified)
TGI (SK-MEL-5 melanoma): 10.3 µM | TGI (ACHN renal): 14 µM | TGI (M14 melanoma): 12.3 µM | TGI (EKVX NSCLC): 17.5 µM | TGI (SK-MEL-28 melanoma): 22.1 µM | TGI (RXF 393 renal): 12.3 µM | TGI (NCI-H460 lung): 11.7 µM | TGI (UACC-62 melanoma): 14.6 µM

O=Cc1cc(O)c(O)c(O)c1-c1c(C=O)cc(O)c(O)c1O
TGI (SK-MEL-5 melanoma): > 100 µM | TGI (ACHN renal): > 100 µM | TGI (A498 renal): > 100 µM | TGI (M14 melanoma): > 100 µM | TGI (EKVX NSCLC): > 100 µM | TGI (SK-MEL-28 melanoma): > 100 µM | TGI (NCI-H460 lung): > 100 µM | TGI (UACC-62 melanoma): > 100 µM

CCN1C(=O)N(c2c(F)c(OC)cc(OC)c2F)Cc2cnc3[nH]c(CN4CCOCC4)cc3c21
GI50 (SK-MEL-5 melanoma): 16.9 µM | TGI (SK-MEL-5 melanoma): > 100 µM | GI50 (ACHN renal): 1.02 µM | TGI (ACHN renal): 14.1 µM | GI50 (M14 melanoma): 1.32 µM | TGI (M14 melanoma): > 100 µM | GI50 (EKVX NSCLC): 9.49 µM | TGI (EKVX NSCLC): > 100 µM | GI50 (SK-MEL-28 melanoma): 8.06 µM | TGI (SK-MEL-28 melanoma): > 100 µM | GI50 (MDA-MB-435): 4.65 µM | TGI (MDA-MB-435): > 100 µM | GI50 (RXF 393 renal): 0.394 µM | TGI (RXF 393 renal): 8.08 µM | GI50 (NCI-H460 lung): 1.86 µM | TGI (NCI-H460 lung): > 100 µM | GI50 (UACC-62 melanoma): 3.77 µM | TGI (UACC-62 melanoma): 51.5 µM

CC(=O)OCCOCNC(=S)N/N=C(\C)c1ccco1
TGI (SK-MEL-5 melanoma): > 100 µM | TGI (ACHN renal): > 100 µM | TGI (A498 renal): > 100 µM | TGI (M14 melanoma): > 100 µM | TGI (EKVX NSCLC): > 100 µM | TGI (SK-MEL-28 melanoma): > 100 µM | TGI (RXF 393 renal): > 100 µM | TGI (NCI-H460 lung): > 100 µM | TGI (UACC-62 melanoma): > 100 µM

CCN(CCCl)CCNc1c2ccccc2nc2ccc(OC)cc12
TGI (SK-MEL-5 melanoma): 2.6 µM | TGI (ACHN renal): 1.66 µM | TGI (A498 renal): 6.64 µM | TGI (M14 melanoma): 2.45 µM | TGI (EKVX NSCLC): 3.49 µM | TGI (SK-MEL-28 melanoma): 3.67 µM | TGI (RXF 393 renal): 1.97 µM | TGI (NCI-H460 lung): 2.2 µM | TGI (UACC-62 melanoma): 1.94 µM

O=S1(=O)CSc2ccc3ccccc3c2-c2c1ccc1ccccc21
TGI (SK-MEL-5 melanoma): > 100 µM | TGI (ACHN renal): > 100 µM | TGI (M14 melanoma): > 100 µM | TGI (SK-MEL-28 melanoma): > 100 µM | TGI (RXF 393 renal): > 100 µM | TGI (NCI-H460 lung): > 100 µM | TGI (UACC-62 melanoma): > 100 µM

CO/N=C1/c2cc(OC)ccc2-c2c(NOC)nc3ccccc3c21
GI50 (SK-MEL-5 melanoma): 13.9 µM | TGI (SK-MEL-5 melanoma): 36 µM | GI50 (ACHN renal): 14.3 µM | TGI (ACHN renal): 31.3 µM | GI50 (A498 renal): 16.1 µM | TGI (A498 renal): 36.9 µM | GI50 (M14 melanoma): > 100 µM | TGI (M14 melanoma): > 100 µM | GI50 (EKVX NSCLC): 31.7 µM | TGI (EKVX NSCLC): > 100 µM | GI50 (SK-MEL-28 melanoma): 85.2 µM | TGI (SK-MEL-28 melanoma): > 100 µM | GI50 (MDA-MB-435): > 100 µM | TGI (MDA-MB-435): > 100 µM | GI50 (NCI-H460 lung): 29.5 µM | TGI (NCI-H460 lung): > 100 µM | GI50 (UACC-62 melanoma): 27.5 µM | TGI (UACC-62 melanoma): > 100 µM

O=C(/C=C/c1ccccc1F)C(c1ccccc1)c1ccccc1
TGI (ACHN renal): 7.66 µM | TGI (M14 melanoma): 6.81 µM | TGI (EKVX NSCLC): 24.4 µM | TGI (SK-MEL-28 melanoma): 6.84 µM | TGI (UACC-62 melanoma): 4.56 µM

COc1ccccc1NC(=O)C1=C(C)NC(C)=C(C(=O)Nc2ccccc2OC)C1c1ccc(C(C)C)cc1
TGI (SK-MEL-5 melanoma): > 100 µM | TGI (ACHN renal): > 100 µM | TGI (A498 renal): > 100 µM | TGI (M14 melanoma): > 100 µM | TGI (EKVX NSCLC): > 100 µM | TGI (SK-MEL-28 melanoma): > 100 µM | TGI (NCI-H460 lung): > 100 µM | TGI (UACC-62 melanoma): > 100 µM

C[C@H](NC(=O)OC1C2C=CC(O)C1CC2)c1ccccc1 (stereo partly specified)
TGI (SK-MEL-5 melanoma): > 100 µM | TGI (ACHN renal): > 100 µM | TGI (A498 renal): > 100 µM | TGI (M14 melanoma): > 100 µM | TGI (EKVX NSCLC): > 100 µM | TGI (SK-MEL-28 melanoma): > 100 µM | TGI (RXF 393 renal): > 100 µM | TGI (NCI-H460 lung): > 100 µM | TGI (UACC-62 melanoma): > 100 µM

Cc1ccc(S(=O)(=O)N2CCCCC2CCO)cc1 (stereo unspecified)
TGI (SK-MEL-5 melanoma): > 100 µM | TGI (ACHN renal): > 100 µM | TGI (A498 renal): > 100 µM | TGI (M14 melanoma): > 100 µM | TGI (EKVX NSCLC): > 100 µM | TGI (RXF 393 renal): > 100 µM | TGI (NCI-H460 lung): > 100 µM | TGI (UACC-62 melanoma): > 100 µM

Cn1cc(C(=O)C2CCCCC2)ccc1=O
TGI (SK-MEL-5 melanoma): > 100 µM | TGI (ACHN renal): > 100 µM | TGI (M14 melanoma): > 100 µM | TGI (EKVX NSCLC): > 100 µM | TGI (SK-MEL-28 melanoma): > 100 µM | TGI (RXF 393 renal): > 100 µM | TGI (NCI-H460 lung): > 100 µM | TGI (UACC-62 melanoma): > 100 µM

Cc1cc(Cl)ccc1N1C(=O)C(=O)C(c2nc3ccccc3s2)C(=O)C1=O
TGI (SK-MEL-5 melanoma): > 100 µM | TGI (ACHN renal): > 100 µM | TGI (A498 renal): > 100 µM | TGI (M14 melanoma): > 100 µM | TGI (EKVX NSCLC): > 100 µM | TGI (SK-MEL-28 melanoma): > 100 µM | TGI (NCI-H460 lung): > 100 µM | TGI (UACC-62 melanoma): > 100 µM

CCCNc1nc(-c2ccc(OC)cc2)nc2ccccc12
GI50 (SK-MEL-5 melanoma): 12.5 µM | TGI (SK-MEL-5 melanoma): 27.7 µM | GI50 (ACHN renal): 15.8 µM | TGI (ACHN renal): 33.3 µM | GI50 (A498 renal): 11.9 µM | TGI (A498 renal): 25 µM | GI50 (M14 melanoma): 10.6 µM | TGI (M14 melanoma): 24.7 µM | GI50 (SK-MEL-28 melanoma): 18.6 µM | TGI (SK-MEL-28 melanoma): 53.6 µM | GI50 (MDA-MB-435): 14.5 µM | TGI (MDA-MB-435): 29.2 µM | GI50 (RXF 393 renal): 15.4 µM | TGI (RXF 393 renal): 35.5 µM | GI50 (NCI-H460 lung): 10.5 µM | TGI (NCI-H460 lung): 44 µM | GI50 (UACC-62 melanoma): 15.4 µM | TGI (UACC-62 melanoma): 35.5 µM

CC(=O)O[C@H]1CC[C@@]2(C)C(=CC[C@@H]3C2CC[C@]2(C)Nc4oncc4CC32)C1 (stereo partly specified)
TGI (SK-MEL-5 melanoma): 33.2 µM | TGI (ACHN renal): 72.4 µM | TGI (A498 renal): > 100 µM | TGI (M14 melanoma): > 100 µM | TGI (EKVX NSCLC): > 100 µM | TGI (SK-MEL-28 melanoma): > 100 µM | TGI (RXF 393 renal): > 100 µM | TGI (NCI-H460 lung): 48.8 µM | TGI (UACC-62 melanoma): 99 µM
